How the values were obtained:
Assay type in all cases: cell-based
[1] = test system: Ba/F3 KIF5B-RET^V804L cells; experiment: Cytotoxicity assay (CellTiter-Glo), Ba/F3 KIF5B-RET V804L; details: ratio of Ba/F3 parental IC50 to Ba/F3 KIF5B-RET^V804L IC50
Procedure: (§1) Inhibitory effects of example compounds on the activity of Ba/F3 parental generation, Ba/F3 KIF5B-RET, Ba/F3 KIF5B-RET^V804M, Ba/F3 KIF5B-RET^V804L, Ba/F3 KIF5B-RET^G810R, Ba/F3 FLT3-ITD, Ba/F3 FLT3-ITD^D835Y, Ba/F3 FLT3-ITD^F691L cells were determined.
(§2) Materials and reagents: fetal bovine serum FBS (GIBCO, Cat #10099141), CellTiter-Glo® Luminescent Cell Viability Assay kit (Promega, Cat #G7572), 96-well black-wall clear flat-bottom plate (Corning®, Cat #3603).
(§3) 1. Cells in the logarithmic growth phase were harvested and counted with a […]. Cell viability was detected by a trypan blue exclusion method, ensuring that cell viability was 90% or more; 2. Cell concentration was adjusted to about 3000 cells/well; 90 μl of cell suspension was added to each well of the 96-well plate; 3. The cells in the 96-well plate were incubated overnight under the condition of 37° C., 5% CO2, and 95% humidity.
(§4) 1. A series of compound solutions were formulated by 3.16-fold serial dilution starting from a concentration of 10 μM, resulting in 9 concentrations. 10 μL of the compound solutions were added in each well of the 96-well plate seeded with cells in triplicate for each compound concentration; 2. The cells in the 96-well plate added with compounds were further incubated under the condition of 37° C., 5% CO2, and 95% humidity for 72 hrs, and then CTG analysis was carried out.
(§5) 1. CTG reagent was thawed, and the cell plate was equilibrated at room temperature for 30 minutes; 2. An equal volume […] of CTG solution was added to each well; 3. The cell plate was shaken on an orbital shaker for 5 minutes to lyse the cells; 4. The cell plate was placed at RT for 20 minutes to stabilize the luminescence signal; 5. Luminescence value was read.
(§6) Data were Analyzed by GraphPad Prism 5.0 Software, and Fitted by Nonlinear S-Curve Regression to obtain a dose-response curve, from which IC50 values were calculated.
(§7) Cell survival rate (%)=(luminescence value of drug to be tested−luminescence value of culture medium control)/(luminescence value of cell control−luminescence value of culture medium control)×100%.

[2] = target: T1, Ba/F3 FLT3-ITD cells (Homo sapiens, UniProt P36888, cells depend on it, form not given); experiment: Cytotoxicity assay (CellTiter-Glo), Ba/F3 FLT3-ITD; details: CellTiter-Glo, 72 hrs; read-out: Ba/F3 FLT3-ITD IC50
T1 construct: Ba/F3 FLT3-ITD IC50 (nM); other: CellTiter-Glo, 72 hrs
T1 sequence (P36888 1-993): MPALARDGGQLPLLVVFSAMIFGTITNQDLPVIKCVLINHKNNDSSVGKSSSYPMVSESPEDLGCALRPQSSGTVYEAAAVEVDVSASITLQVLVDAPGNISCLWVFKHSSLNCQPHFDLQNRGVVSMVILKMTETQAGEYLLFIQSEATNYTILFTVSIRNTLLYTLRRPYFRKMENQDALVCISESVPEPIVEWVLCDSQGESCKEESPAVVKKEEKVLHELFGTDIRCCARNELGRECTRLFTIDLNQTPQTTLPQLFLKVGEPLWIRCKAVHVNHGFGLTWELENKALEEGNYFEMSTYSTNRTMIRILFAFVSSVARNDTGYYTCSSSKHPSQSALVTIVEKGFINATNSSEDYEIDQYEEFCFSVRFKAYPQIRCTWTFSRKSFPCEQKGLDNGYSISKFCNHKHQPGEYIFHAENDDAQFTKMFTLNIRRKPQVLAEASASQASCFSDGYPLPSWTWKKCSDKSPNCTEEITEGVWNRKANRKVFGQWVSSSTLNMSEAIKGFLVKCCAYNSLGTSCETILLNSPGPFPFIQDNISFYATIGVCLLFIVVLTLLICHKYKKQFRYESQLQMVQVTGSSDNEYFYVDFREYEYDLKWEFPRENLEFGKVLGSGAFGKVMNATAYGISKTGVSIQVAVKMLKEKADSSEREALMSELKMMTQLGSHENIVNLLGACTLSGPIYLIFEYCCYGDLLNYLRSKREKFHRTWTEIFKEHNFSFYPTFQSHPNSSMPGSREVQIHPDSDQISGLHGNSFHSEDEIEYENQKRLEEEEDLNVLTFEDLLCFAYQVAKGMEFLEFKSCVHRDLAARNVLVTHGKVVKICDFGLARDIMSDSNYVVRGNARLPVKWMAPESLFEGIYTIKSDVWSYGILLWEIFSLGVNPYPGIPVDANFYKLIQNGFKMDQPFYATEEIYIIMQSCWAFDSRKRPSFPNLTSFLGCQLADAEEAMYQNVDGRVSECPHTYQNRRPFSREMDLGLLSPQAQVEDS
Procedure: as §1, §2, §3, §4, §5, §6, §7

[3] = test system: Ba/F3 FLT3-ITD cells; experiment: Cytotoxicity assay (CellTiter-Glo), Ba/F3 FLT3-ITD; details: ratio of Ba/F3 parental IC50 to Ba/F3 FLT3-ITD IC50
Procedure: as §1, §2, §3, §4, §5, §6, §7

CC(C)n1nc(-c2ccc(NC(=O)Nc3cc(C(F)(F)F)ccc3F)cc2)c2c(N)ncnc21 [AD80, reference compound]
Ba/F3 KIF5B-RET^V804L Selectivity on parental generation [1]: 89.7 | GI50 [2]: 0.67 nM | Ba/F3 FLT3-ITD Selectivity on parental generation [3]: 1211.9

CC(C)n1nc(-c2ccc(CC(=O)Nc3cc(C(C)(C)C(F)(F)F)on3)cc2)c2c(N)ncnc21 [Compound T-1, 2-(4-(4-amino-1-isopropyl-1H-pyrazolo[3,4-d]pyrimidin-3-yl)phenyl)-N-(5-(1,1,1-trifluoro-2-methylprop-2-yl)isoxazol-3-yl)acetamide]
Ba/F3 KIF5B-RET^V804L Selectivity on parental generation [1]: 436.8 | GI50 [2]: 0.31 nM | Ba/F3 FLT3-ITD Selectivity on parental generation [3]: 5227.1

CC(C)n1nc(-c2ccc(NC(=O)Nc3cc(C(C)(C)C(F)(F)F)on3)cc2)c2c(N)ncnc21 [Compound T-2, 1-(4-(4-amino-1-isopropyl-1H-pyrazolo[3,4-d]pyrimidin-3-yl)phenyl)-3-(5-(1,1,1-trifluoro-2-methylprop-2-yl)isoxazol-3-yl)urea]
Ba/F3 KIF5B-RET^V804L Selectivity on parental generation [1]: 62.68 | GI50 [2]: 0.41 nM | Ba/F3 FLT3-ITD Selectivity on parental generation [3]: 824.0

CC(C)n1cc(-c2ccc(CC(=O)Nc3cc(C(C)(C)C(F)(F)F)on3)cc2)c2c(N)ncnc21 [Compound T-3, 2-(4-(4-amino-7-isopropyl-7H-pyrrolo[2,3-d]pyrimidin-5-yl)phenyl)-N-(5-(1,1,1-trifluoro-2-methylprop-2-yl)isoxazol-3-yl)acetamide]
Ba/F3 KIF5B-RET^V804L Selectivity on parental generation [1]: 199.6 | GI50 [2]: 0.1 nM | Ba/F3 FLT3-ITD Selectivity on parental generation [3]: 7244.4

CC(C)c1nc(-c2ccc(CC(=O)Nc3cc(C(C)(C)C(F)(F)F)on3)cc2)c2c(N)nccn12 [Compound T-4, 2-(4-(8-amino-3-isopropylimidazo[1,5-a]pyrazin-1-yl)phenyl)-N-(5-(1,1,1-trifluoro-2-methylprop-2-yl)isoxazol-3-yl)acetamide]
Ba/F3 KIF5B-RET^V804L Selectivity on parental generation [1]: 22.2 | GI50 [2]: 0.1 nM | Ba/F3 FLT3-ITD Selectivity on parental generation [3]: 7011.0

CC(C)c1cc(-c2ccc(CC(=O)Nc3cc(C(C)(C)C(F)(F)F)on3)cc2)c2c(N)ncnn12 [Compound T-5, 2-(4-(4-amino-7-isopropylpyrrolo[2,1-f][1,2,4]triazin-5-yl)phenyl)-N-(5-(1,1,1-trifluoro-2-methylprop-2-yl)isoxazol-3-yl)acetamide]
Ba/F3 KIF5B-RET^V804L Selectivity on parental generation [1]: 242.8 | GI50 [2]: 1.89 nM | Ba/F3 FLT3-ITD Selectivity on parental generation [3]: 2530.7

CC(C)n1nc(-c2ccc(CC(=O)Nc3cc(C(C)(C)C(F)(F)F)on3)c(F)c2)c2c(N)ncnc21 [Compound T-6, 2-(4-(4-amino-1-isopropyl-1H-pyrazolo[3,4-d]pyrimidin-3-yl)-2-fluorophenyl)-N-(5-(1,1,1-trifluoro-2-methylprop-2-yl)isoxazol-3-yl)acetamide]
Ba/F3 KIF5B-RET^V804L Selectivity on parental generation [1]: 361.3 | GI50 [2]: 0.4 nM | Ba/F3 FLT3-ITD Selectivity on parental generation [3]: 5238.7

CC(C)n1nc(-c2ccc(CC(=O)Nc3cc(C(C)(C)C(F)(F)F)on3)cn2)c2c(N)ncnc21 [Compound T-7, 2-(6-(4-amino-1-isopropyl-1H-pyrazolo[3,4-d]pyrimidin-3-yl)pyridin-3-yl)-N-(5-(1,1,1-trifluoro-2-methylprop-2-yl)isoxazol-3-yl)acetamide]
Ba/F3 KIF5B-RET^V804L Selectivity on parental generation [1]: 5.9 | GI50 [2]: 0.1 nM | Ba/F3 FLT3-ITD Selectivity on parental generation [3]: 3280.6

CC(C)n1nc(-c2ccc(CC(=O)Nc3cc(C(C)(C)C(F)(F)F)no3)cc2)c2c(N)ncnc21 [Compound T-8, 2-(4-(4-amino-1-isopropyl-1H-pyrazolo[3,4-d]pyrimidin-3-yl)phenyl)-N-(3-(1,1,1-trifluoro-2-methylprop-2-yl)isoxazol-5-yl)acetamide]
Ba/F3 KIF5B-RET^V804L Selectivity on parental generation [1]: 2403.3 | GI50 [2]: 0.25 nM | Ba/F3 FLT3-ITD Selectivity on parental generation [3]: 14708

CC(C)n1nc(-c2ccc(CC(=O)Nc3cc(C(C)(C)C(F)(F)F)no3)cn2)c2c(N)ncnc21 [Compound T-9, 2-(6-(4-amino-1-isopropyl-1H-pyrazolo[3,4-d]pyrimidin-3-yl)pyridin-3-yl)-N-(3-(1,1,1-trifluoro-2-methylprop-2-yl)isoxazol-5-yl)acetamide]
Ba/F3 KIF5B-RET^V804L Selectivity on parental generation [1]: 83.5 | GI50 [2]: 5.49 nM | Ba/F3 FLT3-ITD Selectivity on parental generation [3]: 750.1

CC(C)c1nc(-c2ccc(CC(=O)Nc3cc(C(C)(C)C(F)(F)F)on3)cc2)c2c(N)ncnn12 [Compound T-10, 2-(4-(4-amino-7-isopropylimidazo[5,1-f][1,2,4]triazin-5-yl)phenyl)-N-(5-(1,1,1-trifluoro-2-methylprop-2-yl)isoxazol-3-yl)acetamide]
Ba/F3 KIF5B-RET^V804L Selectivity on parental generation [1]: 121.8 | GI50 [2]: 0.32 nM | Ba/F3 FLT3-ITD Selectivity on parental generation [3]: 7006.3

[2H]C([2H])([2H])C(n1nc(-c2ccc(CC(=O)Nc3cc(C(C)(C)C(F)(F)F)no3)cc2)c2c(N)ncnc21)C([2H])([2H])[2H] [Compound T-11, 2-(4-(4-amino-1-(propan-2-yl-1,1,1,3,3,3-d6)-1H-pyrazolo[3,4-d]pyrimidin-3-yl)phenyl)-N-(3-(1,1,1-trifluoro-2-methylpropan-2-yl)isoxazol-5-yl)acetamide]
Ba/F3 KIF5B-RET^V804L Selectivity on parental generation [1]: 902.8 | GI50 [2]: 0.73 nM | Ba/F3 FLT3-ITD Selectivity on parental generation [3]: 7543.8

[2H]C([2H])([2H])C(n1cc(-c2ccc(CC(=O)Nc3cc(C(C)(C)C(F)(F)F)on3)cc2)c2c(N)ncnc21)C([2H])([2H])[2H] [Compound T-12, 2-(4-(4-amino-7-(propen-2-yl-1,1,1,3,3,d6)-7H-pyrrolo[2,3-d]pyrimidin-5-yl)phenyl)-N-(5-(1,1,1-trifluo-2-methylpropan-2-yl)isoxazol-3-yl)acetamide]
Ba/F3 KIF5B-RET^V804L Selectivity on parental generation [1]: 132.2 | GI50 [2]: 0.7 nM | Ba/F3 FLT3-ITD Selectivity on parental generation [3]: 1531.4

From US20220380375A1, “SUBSTITUTED AROMATIC FUSED RING DERIVATIVE AND COMPOSITION COMPRISING SAME, AND USE THEREOF” (Shenzhen TargetRx, Inc., priority 2019, published 2022)
